Measurements from US20080102497A1, “ENZYMATIC HYDROLYSIS OF STARCH” (priority 2006, published 2008).
Read-outs that look alike come from different tables or passages of the source.

Legend:
[1] = tested on: enzyme mixture of purified glucoamylase from mushroom and purified α-amylase from barley; test: hydrolysis of raw corn starch by enzyme mixture, reducing sugar by DNSA; format: biochemical; conditions: summary of Table 2
Description: Enzyme mixture was also pre-incubated with 10 mM Fe^++, Cu^++, Ca^++, Mg^++, or disodium ethylenediamine-tetraacetic acid (EDTA). Thereafter, 40 μl of each pre-incubation solution was added to 15 mg raw corn starch, and the reaction mixture incubated at 37° C. for 20 minutes. The control reaction mixture contained substrate, enzyme, and buffer but no additional metal ions. The starch hydrolysis reaction was stopped by combining the reaction mixture with a solution containing 3,5 dinitrosalicylic acid (DNSA) and heating for 30 min at 85° C. The absorbance of the control and test samples was measured at 562 nm to monitor the amount of reducing sugar in each sample.

[2] = tested on: glucoamylase from Rhizopus sp.; test: hydrolysis of raw corn starch, reducing sugar by DNSA; format: biochemical; conditions: for Relative Activity: raw corn starch, pH 5.3, 37° C., 20 min
Text: (§1) The α-amylase from Aspergillus oryzae and the glucoamylase from Rhizopus sp.

[3] = biological target: α-amylase from Aspergillus oryzae (Aspergillus oryzae, UniProt P0C1B3); test: as above; format: biochemical; conditions: for Relative Activity: raw corn starch, pH 5.3, 37° C., 20 min
Text: as §1

[4] = tested on: glucoamylase from Rhizopus sp.; test: pH effect on hydrolysis of raw corn starch; format: biochemical; conditions: for Relative Activity: 37° C., 20 min, control at pH 4 = 100
Description: Enzyme solutions of the glucoamylase from Rhizopus sp. Were prepared in various pH buffers having a pH of 3, 4, 5, 6, 7, or 8. Thereafter, 40 μl of the buffered enzyme solution and a stock solution containing Mn^++ were added to 6 samples containing 15 mg raw corn starch to provide a reaction mixture containing 1.0 mM Mn^++. The reaction mixtures were incubated at 37° C. for 20 minutes.

[5] = tested on: glucoamylase from Rhizopus sp.; test: effect of pre-incubation of Mn^++ with enzyme or starch on raw corn starch conversion; format: biochemical; conditions: for % conversion of the starch substrate: reaction 37° C., pH 5.3
Description: The glucoamylase from Rhizopus sp. Or raw corn starch substrate were pre-incubated in a sodium acetate buffer, pH 5.3, with 1.0 mM Mn^++ for 0, 20, 40, or 60 min at 22° C. The enzyme pre-incubation solutions were then combined with 15 mg raw corn starch to provide a reaction mixture that was incubated at 37° C. for 5 minutes. The starch pre-incubation solutions were combined with an enzyme solution containing the glucoamylase from Rhizopus sp and buffer to provide a reaction mixture that was incubated at 37° C. for 5 minutes or 10 minutes.

β-amylase from barley = β-amylase from barley (Hordeum vulgare, UniProt P16098); test: hydrolysis of cooked starches from different botanical sources; format: biochemical; conditions: pH 5.2, 37° C., 10 min
β-amylase from barley, sequence (P16098 whole entry): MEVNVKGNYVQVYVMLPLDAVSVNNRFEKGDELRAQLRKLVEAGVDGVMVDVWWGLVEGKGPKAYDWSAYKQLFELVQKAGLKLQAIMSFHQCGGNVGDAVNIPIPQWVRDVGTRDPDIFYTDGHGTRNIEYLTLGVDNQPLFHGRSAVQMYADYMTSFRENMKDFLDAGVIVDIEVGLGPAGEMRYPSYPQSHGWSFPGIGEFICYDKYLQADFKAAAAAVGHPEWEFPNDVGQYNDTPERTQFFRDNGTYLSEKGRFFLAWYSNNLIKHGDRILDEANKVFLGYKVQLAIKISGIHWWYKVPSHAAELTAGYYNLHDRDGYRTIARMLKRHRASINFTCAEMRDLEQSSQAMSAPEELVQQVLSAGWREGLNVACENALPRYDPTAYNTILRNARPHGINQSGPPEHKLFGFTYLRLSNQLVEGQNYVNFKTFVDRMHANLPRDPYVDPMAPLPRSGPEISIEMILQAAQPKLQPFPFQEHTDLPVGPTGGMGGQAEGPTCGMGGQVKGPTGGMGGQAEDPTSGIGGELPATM
Description: (§2) The control reaction mixture contained enzyme, buffer, and starch but no manganese ion. The starch hydrolysis reaction was stopped by combining the reaction mixture with 3,5 dinitrosalicylic acid (DNSA) and heating for 30 min at 85° C. The absorbance of the control and test samples was measured at 562 nm to monitor the amount of reducing sugar in each sample.

[6] = biological target: glucoamylase from Aspergillus Niger (Aspergillus niger, UniProt P69328); conditions: pH 5.2, 37° C., 10 min
glucoamylase from Aspergillus Niger, sequence (P69328 25-640): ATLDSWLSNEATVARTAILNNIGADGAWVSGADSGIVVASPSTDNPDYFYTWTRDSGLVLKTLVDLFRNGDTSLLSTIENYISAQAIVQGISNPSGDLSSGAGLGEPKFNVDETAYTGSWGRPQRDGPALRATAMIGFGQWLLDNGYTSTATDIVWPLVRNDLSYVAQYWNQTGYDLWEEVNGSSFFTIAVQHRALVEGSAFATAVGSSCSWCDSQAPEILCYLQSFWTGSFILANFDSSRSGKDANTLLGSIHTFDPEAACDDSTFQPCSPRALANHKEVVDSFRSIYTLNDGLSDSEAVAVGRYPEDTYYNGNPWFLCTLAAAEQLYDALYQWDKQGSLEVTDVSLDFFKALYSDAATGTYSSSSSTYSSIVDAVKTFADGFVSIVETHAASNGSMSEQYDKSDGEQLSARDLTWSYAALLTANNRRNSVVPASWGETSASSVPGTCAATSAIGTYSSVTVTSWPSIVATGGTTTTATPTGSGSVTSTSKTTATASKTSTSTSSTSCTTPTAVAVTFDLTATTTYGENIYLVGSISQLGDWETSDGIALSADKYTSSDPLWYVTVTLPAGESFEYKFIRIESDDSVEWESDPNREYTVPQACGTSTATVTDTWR
Description: as §2, with “The separate reaction mixtures were incubated at 37° C. for 10 minutes. The control” for “The control”, “mixture with a solution containing DNSA and heating” for “mixture with 3,5 dinitrosalicylic acid (DNSA) and heating”

[7] = tested on: enzyme mixture of purified glucoamylase from mushroom and purified α-amylase from barley; test: hydrolysis of raw corn starch by enzyme mixture, reducing sugar by DNSA; format: biochemical; conditions: pH 5.3, 37° C., 20 min

[Mn+2] [Mn^++, manganese ions]
effect on hydrolysis of raw corn starch (in words) [1]: enhances the hydrolysis of raw corn starch
Relative Activity ([2]; 0.01 mM Mn^++): 105.0%
Relative Activity ([2]; 0.1 mM Mn^++): 119.2%
Relative Activity ([2]; 1 mM Mn^++): 133.5%
Relative Activity ([2]; 10 mM Mn^++): 162.6%
effect on hydrolysis of raw corn starch (in words) ([2]; summary of Table 3): enhances the hydrolysis of raw corn starch
Relative Activity ([3]; 0.01 mM Mn^++): 106.6%
Relative Activity ([3]; 0.1 mM Mn^++): 125.5%
Relative Activity ([3]; 1 mM Mn^++): 136.7%
Relative Activity ([3]; 10 mM Mn^++): 155.6%
effect on hydrolysis of raw corn starch (in words) ([3]; summary of Table 3): enhances the hydrolysis of raw corn starch
pH of greatest Mn^++-induced activation ([4]; 1.0 mM Mn^++, pH 3-8 tested): 5.0
Relative Activity ([4]; pH 3, 1.0 mM Mn^++): 98%
Relative Activity ([4]; pH 4, 1.0 mM Mn^++): 146.7%
Relative Activity ([4]; pH 5, 1.0 mM Mn^++): 148.6%
Relative Activity ([4]; pH 6, 1.0 mM Mn^++): 127.8%
Relative Activity ([4]; pH 7, 1.0 mM Mn^++): 103.1%
Relative Activity ([4]; pH 8, 1.0 mM Mn^++): 44.3%
% conversion of the starch substrate ([5]; 1.0 mM Mn^++ pre-incubated with glucoamylase 0 min at 22° C., 5 min, raw corn starch): 0.42%
% conversion of the starch substrate ([5]; 1.0 mM Mn^++ pre-incubated with glucoamylase 20 min at 22° C., 5 min, raw corn starch): 0.35%
% conversion of the starch substrate ([5]; 1.0 mM Mn^++ pre-incubated with glucoamylase 40 min at 22° C., 5 min, raw corn starch): 0.38%
% conversion of the starch substrate ([5]; 1.0 mM Mn^++ pre-incubated with glucoamylase 60 min at 22° C., 5 min, raw corn starch): 0.38%
% conversion of the starch substrate ([5]; 1.0 mM Mn^++ pre-incubated with raw corn starch 0 min at 22° C., 5 min): 0.51%
% conversion of the starch substrate ([5]; 1.0 mM Mn^++ pre-incubated with raw corn starch 0 min at 22° C., 10 min): 0.73%
% conversion of the starch substrate ([5]; 1.0 mM Mn^++ pre-incubated with raw corn starch 20 min at 22° C., 5 min): 0.48%
% conversion of the starch substrate ([5]; 1.0 mM Mn^++ pre-incubated with raw corn starch 20 min at 22° C., 10 min): 0.79%
% conversion of the starch substrate ([5]; 1.0 mM Mn^++ pre-incubated with raw corn starch 40 min at 22° C., 5 min): 0.50%
% conversion of the starch substrate ([5]; 1.0 mM Mn^++ pre-incubated with raw corn starch 40 min at 22° C., 10 min): 0.81%
% conversion of the starch substrate ([5]; 1.0 mM Mn^++ pre-incubated with raw corn starch 60 min at 22° C., 5 min): 0.58%
% conversion of the starch substrate ([5]; 1.0 mM Mn^++ pre-incubated with raw corn starch 60 min at 22° C., 10 min): 0.80%
effect of pre-incubation on activation by Mn^++ (in words) ([5]; pre-incubation of Mn^++ with enzyme or with starch, 0-60 min): does not significantly influence the activation effect
Relative Activity (β-amylase from barley; 0.01 mM Mn^++, cooked barley starch 0.5%): 115.2%
Relative Activity (β-amylase from barley; 0.01 mM Mn^++, cooked pea starch 0.5%): 108.1%
Relative Activity (β-amylase from barley; 0.01 mM Mn^++, cooked potato starch 0.5%): 109.5%
Relative Activity (β-amylase from barley; 0.01 mM Mn^++, cooked rice starch 0.5%): 107.8%
Relative Activity (β-amylase from barley; 0.01 mM Mn^++, cooked soluble potato starch 0.5%): 117.4%
Relative Activity (β-amylase from barley; 0.01 mM Mn^++, cooked tapioca starch 0.5%): 111.3%
Relative Activity (β-amylase from barley; 0.01 mM Mn^++, cooked wheat starch 0.5%): 120.2%
Relative Activity (β-amylase from barley; 0.1 mM Mn^++, cooked barley starch 0.5%): 121.1%
Relative Activity (β-amylase from barley; 0.1 mM Mn^++, cooked pea starch 0.5%): 122.3%
Relative Activity (β-amylase from barley; 0.1 mM Mn^++, cooked potato starch 0.5%): 117.5%
Relative Activity (β-amylase from barley; 0.1 mM Mn^++, cooked rice starch 0.5%): 123.9%
Relative Activity (β-amylase from barley; 0.1 mM Mn^++, cooked soluble potato starch 0.5%): 136.0%
Relative Activity (β-amylase from barley; 0.1 mM Mn^++, cooked tapioca starch 0.5%): 122.1%
Relative Activity (β-amylase from barley; 0.1 mM Mn^++, cooked wheat starch 0.5%): 141.9%
Relative Activity (β-amylase from barley; 1 mM Mn^++, cooked barley starch 0.5%): 154.0%
Relative Activity (β-amylase from barley; 1 mM Mn^++, cooked pea starch 0.5%): 139.2%
Relative Activity (β-amylase from barley; 1 mM Mn^++, cooked potato starch 0.5%): 135.4%
Relative Activity (β-amylase from barley; 1 mM Mn^++, cooked rice starch 0.5%): 138.1%
Relative Activity (β-amylase from barley; 1 mM Mn^++, cooked soluble potato starch 0.5%): 154.1%
Relative Activity (β-amylase from barley; 1 mM Mn^++, cooked tapioca starch 0.5%): 135.6%
Relative Activity (β-amylase from barley; 1 mM Mn^++, cooked wheat starch 0.5%): 151.9%
Relative Activity (β-amylase from barley; 10 mM Mn^++, cooked barley starch 0.5%): 197.5%
Relative Activity (β-amylase from barley; 10 mM Mn^++, cooked pea starch 0.5%): 253.4%
Relative Activity (β-amylase from barley; 10 mM Mn^++, cooked potato starch 0.5%): 175.1%
Relative Activity (β-amylase from barley; 10 mM Mn^++, cooked rice starch 0.5%): 173.4%
Relative Activity (β-amylase from barley; 10 mM Mn^++, cooked soluble potato starch 0.5%): 165.6%
Relative Activity (β-amylase from barley; 10 mM Mn^++, cooked tapioca starch 0.5%): 180.5%
Relative Activity (β-amylase from barley; 10 mM Mn^++, cooked wheat starch 0.5%): 221.1%
Relative Activity ([6]; 0.01 mM Mn^++, cooked dent corn starch 0.5%): 113.3%
Relative Activity ([6]; 0.01 mM Mn^++, cooked high-amylose V corn starch 0.5%): 119.2%
Relative Activity ([6]; 0.01 mM Mn^++, cooked soluble corn starch 0.5%): 119.1%
Relative Activity ([6]; 0.01 mM Mn^++, cooked waxy corn starch 0.5%): 113.0%
Relative Activity ([6]; 0.1 mM Mn^++, cooked dent corn starch 0.5%): 126.1%
Relative Activity ([6]; 0.1 mM Mn^++, cooked high-amylose V corn starch 0.5%): 130.9%
Relative Activity ([6]; 0.1 mM Mn^++, cooked soluble corn starch 0.5%): 129.1%
Relative Activity ([6]; 0.1 mM Mn^++, cooked waxy corn starch 0.5%): 130.1%
Relative Activity ([6]; 1 mM Mn^++, cooked dent corn starch 0.5%): 148.4%
Relative Activity ([6]; 1 mM Mn^++, cooked high-amylose V corn starch 0.5%): 141.3%
Relative Activity ([6]; 1 mM Mn^++, cooked soluble corn starch 0.5%): 144.8%
Relative Activity ([6]; 1 mM Mn^++, cooked waxy corn starch 0.5%): 147.2%
Relative Activity ([6]; 10 mM Mn^++, cooked dent corn starch 0.5%): 186.9%
Relative Activity ([6]; 10 mM Mn^++, cooked high-amylose V corn starch 0.5%): 193.1%
Relative Activity ([6]; 10 mM Mn^++, cooked soluble corn starch 0.5%): 178.3%
Relative Activity ([6]; 10 mM Mn^++, cooked waxy corn starch 0.5%): 200.3%
Relative Activity ([7]; 0.01 mM Mn^++): 106.7%
Relative Activity ([7]; 0.1 mM Mn^++): 124.7%
Relative Activity ([7]; 1 mM Mn^++): 142.6%
Relative Activity ([7]; 10 mM Mn^++): 143.5%
